Data as given in PubChem BioAssay (NCI).
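Following 48 hours of exposure in 96-well plates, responses at five concentrations were used to interpolate endpoints linearly. GI50 = concentration required for 50% inhibition of growth. TGI: concentration producing complete growth inhibition.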

Columns and labels:
Assay in all cases: NCI anticancer screen, dose series, 48 h
OVCAR-5 ovarian = test system: OVCAR-5 ovarian
A498 renal = test system: A498 renal
T-47D breast = test system: T-47D breast
SW-620 colon = test system: SW-620 colon
BT-549 breast = test system: BT-549 breast
RPMI-8226 leukemia = test system: RPMI-8226 leukemia
SF-539 CNS = test system: SF-539 CNS
SF-295 CNS = test system: SF-295 CNS
HOP-92 NSCLC = test system: HOP-92 NSCLC
COLO 205 colon = test system: COLO 205 colon
SF-268 CNS = test system: SF-268 CNS
UACC-257 melanoma = test system: UACC-257 melanoma
RXF 393 renal = test system: RXF 393 renal
MDA-MB-231 breast = test system: MDA-MB-231 breast
NCI-H23 lung = test system: NCI-H23 lung
SR leukemia = test system: SR leukemia
SN12C renal = test system: SN12C renal
HCC-2998 colon = test system: HCC-2998 colon
PC-3 prostate = test system: PC-3 prostate
HL-60(TB) leukemia = test system: HL-60(TB) leukemia
ACHN renal = test system: ACHN renal
NCI-H522 lung = test system: NCI-H522 lung
HCT-15 colon = test system: HCT-15 colon
CCRF-CEM leukemia = test system: CCRF-CEM leukemia
SK-MEL-28 melanoma = test system: SK-MEL-28 melanoma
TK-10 renal = test system: TK-10 renal
HS 578T breast = test system: HS 578T breast
MCF7 breast = test system: MCF7 breast
OVCAR-4 ovarian = test system: OVCAR-4 ovarian
EKVX NSCLC = test system: EKVX NSCLC
CAKI-1 renal = test system: CAKI-1 renal
HT29 colon = test system: HT29 colon
NCI-H226 lung = test system: NCI-H226 lung
HOP-62 NSCLC = test system: HOP-62 NSCLC
SK-MEL-2 melanoma = test system: SK-MEL-2 melanoma
UO-31 renal = test system: UO-31 renal
M14 melanoma = test system: M14 melanoma
UACC-62 melanoma = test system: UACC-62 melanoma
IGROV1 ovarian = test system: IGROV1 ovarian
MDA-MB-435 = test system: MDA-MB-435
NCI-H460 lung = test system: NCI-H460 lung
MALME-3M melanoma = test system: MALME-3M melanoma
DU-145 prostate = test system: DU-145 prostate
K-562 leukemia = test system: K-562 leukemia
SNB-19 CNS = test system: SNB-19 CNS
KM12 colon = test system: KM12 colon
SNB-75 CNS = test system: SNB-75 CNS
SK-MEL-5 melanoma = test system: SK-MEL-5 melanoma

`NCCCNc1nc2ccccc2c2c(=O)c3cccc(F)c3sc12` showed a GI50 (OVCAR-5 ovarian) of 1600 nM, a TGI (OVCAR-5 ovarian) of 3010 nM and a GI50 (A498 renal) of 1670 nM. For the same compound, the TGI (A498 renal) was 3100 nM, the GI50 (T-47D breast) was 1580 nM and the TGI (T-47D breast) was 3740 nM. The GI50 (SW-620 colon) was 1100 nM, the TGI (SW-620 colon) was 2490 nM and the GI50 (BT-549 breast) was 11500 nM. It also gave a TGI (BT-549 breast) of 29600 nM, a GI50 (RPMI-8226 leukemia) of 2030 nM and a TGI (RPMI-8226 leukemia) of 4750 nM. For the same compound, the GI50 (SF-539 CNS) was 1590 nM, the TGI (SF-539 CNS) was 2970 nM and the GI50 (SF-295 CNS) was 1740 nM. For the same compound, the TGI (SF-295 CNS) was 3190 nM, the GI50 (HOP-92 NSCLC) was 1290 nM and the TGI (HOP-92 NSCLC) was 3390 nM. For the same compound, the GI50 (COLO 205 colon) was 1600 nM, the TGI (COLO 205 colon) was 3690 nM and the GI50 (SF-268 CNS) was 1470 nM. The TGI (SF-268 CNS) was 3350 nM, the GI50 (UACC-257 melanoma) was 1970 nM and the TGI (UACC-257 melanoma) was 3810 nM. It also gave a GI50 (RXF 393 renal) of 1430 nM, a TGI (RXF 393 renal) of 2810 nM and a GI50 (MDA-MB-231 breast) of 1280 nM. For the same compound, the TGI (MDA-MB-231 breast) was 2750 nM, the GI50 (NCI-H23 lung) was 1540 nM and the TGI (NCI-H23 lung) was 3030 nM. For the same compound, the GI50 (SR leukemia) was 1570 nM, the TGI (SR leukemia) was > 100000 nM and the GI50 (SN12C renal) was 1280 nM. The TGI (SN12C renal) was 2700 nM, the GI50 (HCC-2998 colon) was 1640 nM and the TGI (HCC-2998 colon) was 3410 nM. For the same compound, the GI50 (PC-3 prostate) was 1670 nM, the TGI (PC-3 prostate) was 3260 nM and the GI50 (HL-60(TB) leukemia) was 1880 nM. It also gave a TGI (HL-60(TB) leukemia) of 3950 nM, a GI50 (ACHN renal) of 1200 nM and a TGI (ACHN renal) of 2430 nM. It also gave a GI50 (NCI-H522 lung) of 1610 nM, a TGI (NCI-H522 lung) of 3280 nM and a GI50 (HCT-15 colon) of 1130 nM. It also gave a TGI (HCT-15 colon) of 2390 nM, a GI50 (CCRF-CEM leukemia) of 1420 nM and a TGI (CCRF-CEM leukemia) of 4160 nM. For the same compound, the GI50 (SK-MEL-28 melanoma) was 1770 nM, the TGI (SK-MEL-28 melanoma) was 3230 nM and the GI50 (TK-10 renal) was 1940 nM. For the same compound, the TGI (TK-10 renal) was 3470 nM, the GI50 (HS 578T breast) was 1720 nM and the TGI (HS 578T breast) was 3970 nM. It also gave a GI50 (MCF7 breast) of 1010 nM, a TGI (MCF7 breast) of 2400 nM and a GI50 (OVCAR-4 ovarian) of 1760 nM. It also gave a TGI (OVCAR-4 ovarian) of 3580 nM, a GI50 (EKVX NSCLC) of 1500 nM and a TGI (EKVX NSCLC) of 3000 nM. It also gave a GI50 (CAKI-1 renal) of 1420 nM, a TGI (CAKI-1 renal) of 2750 nM and a GI50 (HT29 colon) of 1250 nM. For the same compound, the TGI (HT29 colon) was 2690 nM, the GI50 (NCI-H226 lung) was 1450 nM and the TGI (NCI-H226 lung) was 3060 nM. For the same compound, the GI50 (HOP-62 NSCLC) was 1500 nM, the TGI (HOP-62 NSCLC) was 3150 nM and the GI50 (SK-MEL-2 melanoma) was 1770 nM. The TGI (SK-MEL-2 melanoma) was 3660 nM, the GI50 (UO-31 renal) was 1010 nM and the TGI (UO-31 renal) was 2240 nM. The GI50 (M14 melanoma) was 1800 nM, the TGI (M14 melanoma) was 3560 nM and the GI50 (UACC-62 melanoma) was 1670 nM. The TGI (UACC-62 melanoma) was 3130 nM, the GI50 (IGROV1 ovarian) was 798 nM and the TGI (IGROV1 ovarian) was 2220 nM. It also gave a GI50 (MDA-MB-435) of 1770 nM, a TGI (MDA-MB-435) of 3390 nM and a GI50 (NCI-H460 lung) of 493 nM. The TGI (NCI-H460 lung) was 1770 nM, the GI50 (MALME-3M melanoma) was 1570 nM and the TGI (MALME-3M melanoma) was 3050 nM. The GI50 (DU-145 prostate) was 1230 nM, the TGI (DU-145 prostate) was 2530 nM and the GI50 (K-562 leukemia) was 1360 nM. It also gave a TGI (K-562 leukemia) of 4150 nM, a GI50 (SNB-19 CNS) of 1570 nM and a TGI (SNB-19 CNS) of 3000 nM. The GI50 (KM12 colon) was 1610 nM, the TGI (KM12 colon) was 3040 nM and the GI50 (SNB-75 CNS) was 1610 nM. It also gave a TGI (SNB-75 CNS) of 3210 nM, a GI50 (SK-MEL-5 melanoma) of 1690 nM and a TGI (SK-MEL-5 melanoma) of 3080 nM.
